The record followed here is ChEMBL document CHEMBL1687822, “Inhibition of bacterial multidrug resistance by celecoxib, a cyclooxygenase-2 inhibitor” (2011).

The subject of assay [1] is Staphylococcus aureus. The assay is described as follows: Antibacterial activity against Staphylococcus aureus ATCC 29213. It counts as functional.
Assay [2] deals with Staphylococcus aureus. The assay is described as follows: Antibacterial activity against methicillin-resistant Staphylococcus aureus ATCC 335913. It counts as functional.
Assay [3] concerns Mycolicibacterium smegmatis. The assay can be described thus: Antibacterial activity against Mycobacterium smegmatis MC2 155 ATCC. The format is functional.
Assay [4] relates to Staphylococcus aureus. The assay is described as follows: Inhibition of MDR1-mediated […] in Staphylococcus aureus ATCC 29213 assessed as fractional inhibitory concentration index after 24 to 48 hrs in presence of ampicillin.
For assay [5], the system named is Staphylococcus aureus. The assay is described as follows: Inhibition of MDR1-mediated methicillin-resistant Staphylococcus aureus ATCC 335913 assessed as fractional inhibitory concentration index after 24 to 48 hrs in presence of ampicillin.
The subject of assay [6] is Mycolicibacterium smegmatis MC2 155. The assay is described as follows: Inhibition of MDR1-mediated Mycobacterium smegmatis MC2 155 ATCC assessed as fractional inhibitory concentration index after 24 to 48 hrs in presence of ampicillin.
Assay [7] deals with Staphylococcus aureus. The assay can be described thus: Inhibition of MDR1-mediated […] in Staphylococcus aureus ATCC 29213 assessed as fractional inhibitory concentration index after 24 to 48 hrs in presence of kanamycin.
In assay [8] the test system is Staphylococcus aureus. The assay can be described thus: Inhibition of MDR1-mediated methicillin-resistant Staphylococcus aureus ATCC 335913 assessed as fractional inhibitory concentration index after 24 to 48 hrs in presence of kanamycin.
For assay [9], the system named is Mycolicibacterium smegmatis MC2 155. The assay can be described thus: Inhibition of MDR1-mediated Mycobacterium smegmatis MC2 155 ATCC assessed as fractional inhibitory concentration index after 24 to 48 hrs in presence of kanamycin.
Assay [10] relates to Staphylococcus aureus. The assay is described as follows: Inhibition of MDR1-mediated […] in Staphylococcus aureus ATCC 29213 assessed as fractional inhibitory concentration index after 24 to 48 hrs in presence of chloramphenicol.
Assay [11] concerns Staphylococcus aureus. The assay is described as follows: Inhibition of MDR1-mediated methicillin-resistant Staphylococcus aureus ATCC 335913 assessed as fractional inhibitory concentration index after 24 to 48 hrs in presence of chloramphenicol.
Assay [12] concerns Mycolicibacterium smegmatis MC2 155. The assay is described as follows: Inhibition of MDR1-mediated Mycobacterium smegmatis MC2 155 ATCC assessed as fractional inhibitory concentration index after 24 to 48 hrs in presence of chloramphenicol.
Assay [13] relates to Staphylococcus aureus. The assay can be described thus: Inhibition of MDR1-mediated […] in Staphylococcus aureus ATCC 29213 assessed as fractional inhibitory concentration index after 24 to 48 hrs in presence of ciprofloxacin.
In assay [14] the test system is Staphylococcus aureus. The assay can be described thus: Inhibition of MDR1-mediated methicillin-resistant Staphylococcus aureus ATCC 335913 assessed as fractional inhibitory concentration index after 24 to 48 hrs in presence of ciprofloxacin.
In assay [15] the test system is Mycolicibacterium smegmatis MC2 155. The assay is described as follows: Inhibition of MDR1-mediated Mycobacterium smegmatis MC2 155 ATCC assessed as fractional inhibitory concentration index after 24 to 48 hrs in presence of ciprofloxacin.
The subject of assay [16] is Staphylococcus aureus. The assay can be described thus: Inhibition of MDR1 in Staphylococcus aureus ATCC 29213 assessed as increase in accumulation of ampicillin by EtBr efflux using flow cytometer. (In general: In flow cytometry, cells or beads pass a laser one at a time.)
Assay [17] concerns Staphylococcus aureus. The assay is described as follows: Inhibition of MDR1 in methicillin-resistant Staphylococcus aureus ATCC 335913 assessed as increase in accumulation of ampicillin by EtBr efflux using flow cytometer.
The subject of assay [18] is Mycolicibacterium smegmatis MC2 155. The assay is described as follows: Inhibition of MDR1 in Mycobacterium smegmatis ATCC MC2155 assessed as increase in accumulation of ampicillin by EtBr efflux using flow cytometer.
Assay [19] relates to Staphylococcus aureus. The assay can be described thus: Inhibition of MDR1 in Staphylococcus aureus ATCC 29213 assessed as increase in accumulation of kanamycin by EtBr efflux using flow cytometer.
Assay [20] has as its system Staphylococcus aureus. The assay is described as follows: Inhibition of MDR1 in methicillin-resistant Staphylococcus aureus ATCC 335913 assessed as increase in accumulation of kanamycin by EtBr efflux using flow cytometer.
The subject of assay [21] is Mycolicibacterium smegmatis MC2 155. The assay is described as follows: Inhibition of MDR1 in Mycobacterium smegmatis ATCC MC2155 assessed as increase in accumulation of kanamycin by EtBr efflux using flow cytometer.
Assay [22] has as its system Staphylococcus aureus. The assay can be described thus: Inhibition of MDR1 in Staphylococcus aureus ATCC 29213 assessed as increase in accumulation of chloramphenicol by EtBr efflux using flow cytometer.
For assay [23], the system named is Staphylococcus aureus. The assay is described as follows: Inhibition of MDR1 in methicillin-resistant Staphylococcus aureus ATCC 335913 assessed as increase in accumulation of chloramphenicol by EtBr efflux using flow cytometer.
Assay [24] concerns Mycolicibacterium smegmatis MC2 155. The assay is described as follows: Inhibition of MDR1 in Mycobacterium smegmatis ATCC MC2155 assessed as increase in accumulation of chloramphenicol by EtBr efflux using flow cytometer.
Assay [25] concerns Staphylococcus aureus. The assay is described as follows: Inhibition of MDR1 in Staphylococcus aureus ATCC 29213 assessed as increase in accumulation of ciprofloxacin by EtBr efflux using flow cytometer.
Assay [26] concerns Staphylococcus aureus. The assay can be described thus: Inhibition of MDR1 in methicillin-resistant Staphylococcus aureus ATCC 335913 assessed as increase in accumulation of ciprofloxacin by EtBr efflux using flow cytometer.
In assay [27] the test system is Mycolicibacterium smegmatis MC2 155. The assay can be described thus: Inhibition of MDR1 in Mycobacterium smegmatis ATCC MC2155 assessed as increase in accumulation of ciprofloxacin by EtBr efflux using flow cytometer.

What is called MIC is the lowest concentration that inhibits growth of the organism. The low end stands for a more susceptible organism, the high end for a less susceptible organism. For the molecule `Cc1ccc(-c2cc(C(F)(F)F)nn2-c2ccc(S(N)(=O)=O)cc2)cc1` [CELECOXIB], the MIC (in the assay on Staphylococcus aureus [1]; in the assay on Staphylococcus aureus [2]; in assay [3]) was more than 100 µM throughout. Further, the fractional inhibitory concentration index (FICI) in the assay on Staphylococcus aureus [4] came out at 0.281; in the assay on Staphylococcus aureus [5], 0.312; in assay [6], 0.0665; in the assay on Staphylococcus aureus [7], 0.531; in the assay on Staphylococcus aureus [8] it was 0.312; in [9] it was 0.312. Moreover, the fractional inhibitory concentration index (FICI) in the assay with Staphylococcus aureus [10] stood at 0.281; in the assay with Staphylococcus aureus [11], 0.312; in [12] it was 0.562; in the assay with Staphylococcus aureus [13], 0.281; in the assay with Staphylococcus aureus [14], 0.312; in assay [15], 0.188. Moreover, the inhibition result (in the assay with Staphylococcus aureus [16]; in the assay with Staphylococcus aureus [17]; in assay [18]; with Staphylococcus aureus [19]; in the assay on Staphylococcus aureus [20]; in assay [21]) was “Dose-dependent effect” in each case. The inhibition entry (with Staphylococcus aureus [22]; in the assay on Staphylococcus aureus [23]; in assay [24]; in the assay with Staphylococcus aureus [25]; in the assay with Staphylococcus aureus [26]; in assay [27]) was “Dose-dependent effect” in each case.

In the case of `O=C(N[C@H](CO)[C@H](O)c1ccc([N+](=O)[O-])cc1)C(Cl)Cl` [CHLORAMPHENICOL], the MIC in the assay on Staphylococcus aureus [1] amounted to 5 µg/mL; against Staphylococcus aureus [2] it was 100 µg/mL; in [3] it was 10 µg/mL.

Turning to `NC[C@H]1O[C@H](O[C@H]2[C@H](O)[C@@H](O[C@H]3O[C@H](CO)[C@@H](O)[C@H](N)[C@H]3O)[C@H](N)C[C@@H]2N)[C@H](O)[C@@H](O)[C@@H]1O` [KANAMYCIN], the MIC with Staphylococcus aureus [1] is 10 µg/mL; against Staphylococcus aureus [2], 100 µg/mL; in assay [3], 0.5 µg/mL.

On to `CC1(C)S[C@@H]2[C@H](NC(=O)[C@H](N)c3ccccc3)C(=O)N2[C@H]1C(=O)O` [AMPICILLIN], for which the results for the MIC (in the assay with Staphylococcus aureus [1]; in the assay on Staphylococcus aureus [2]; in [3]) were 5 µg/mL, 200 µg/mL and 250 µg/mL, respectively.

For `O=C(O)c1cn(C2CC2)c2cc(N3CCNCC3)c(F)cc2c1=O` [CIPROFLOXACIN], the figures for the minimal inhibitory concentration (MIC) (against Staphylococcus aureus [1]; against Staphylococcus aureus [2]; in assay [3]) were 0.25 µg/mL, 0.25 µg/mL and 0.5 µg/mL, respectively.
